The source of these data is patent US4473554A, “Bestatin-related compounds as immunopotentiator” (Zaidan Hojin Biseibutsu Kagaku Kenkyu Kai, priority 1982, dated 1984).

One data set has as its system ICR-strain mice. In words: acute toxicity, intraperitoneal, ICR-strain mice. Type of data set: in vivo, mouse. The settings on record: dosage of 100 mg/kg. From the text: In order to estimate the acute toxicity of the compound of the formula (VIII) or (IIId), some of the test compound was intraperitoneally given to ICR-strain mice (in groups each consisting of 6 mice, male, 5 weeks-aged, average body weight 20 g.), when all the tested mice tolerated intraperitoneal administration of (2S,3R)-APHA; (2S)-2-N-[(2'S,3'R)-3'-amino-2'-hydroxy-4'-phenyl-butanoyl]amino-4-methyl- pentanol; (2S)-2-N-[(2'S,3'R)-3'-amino-2'-hydroxy-4'-phenylbutanoyl-(S)-leucyl]amino-4-methyl-pentanol; (2S,3R)-3-amino-2-hydroxy-4-phenylbutanoyl-(S)-leucyl-(S)-leucine; (2S,3R)-3-amino-2-hydroxy-4-phenyl-butanoyl-(S)-leucyl-(S)-arginine; (2S,3R)-3-amino-2-hydroxy-4-phenylbutanoyl-(S)-leucyl-(S)-asparagine; (2R,3R)-3-amino-2-hydroxy-4-phenylbutanoyl-(S)-leucyl-(R)-asparagine; and (2S,3R)-3-amino-2-hydroxy-4-phenylbutanoyl-(S)-leucyl-(R)-arginine at a dosage of 100 mg/kg.

Data set [1] relates to D.T.H. response in mice immunized with SRBC as antigen. Kind of data set: D.T.H. footpad test in mice immunized with SRBC, Examples 3-6 (dosages per mouse). The settings on record: for enhancement of D.T.H. response / cell-mediated immunity: oral, 10 mcg/mouse or 1 mcg/mouse. It is filed as in vivo. As to the method: The effect of (2S,3R)-AHPA on cell-mediated immunity was tested in the same way in Example 2, namely according to the D.T.H. technique using mice immunized with sheep red blood cell as antigen. Thus, a suspension of 10^8 sheep red blood cells in 0.05 ml of physiological saline were subcutaneously injected at the time of immunization into the right hind footpad of each CDF1 -mouse under test (female, 8 weeks-aged, 5 mice in each group) to establish D.T.H. […] The degree of swelling was evaluated. By way of comparison, bestatin was tested in the same way as above. […] The effect of (2S,3R)-AHPA on the D.T.H. response was estimated in the same manner as in the above procedure (A) of Example 3 by orally administering 1 mcg/mouse, 0.1 mcg/mouse or 0.01 mcg/mouse of (2S,3R)-AHPA to each mouse under test. […] The effect of the mode of administering (2S,3R)-AHPA on the D.T.H. response was estimated in the same manner as in the procedure (A) of Example 3, except that the test compound (as aqueous solution) was injected intraperitoneally in stead of being given orally.

Another data set addresses T1, aminopeptidase B (Rattus norvegicus, UniProt O09175).
T1 sequence (O09175 1-650): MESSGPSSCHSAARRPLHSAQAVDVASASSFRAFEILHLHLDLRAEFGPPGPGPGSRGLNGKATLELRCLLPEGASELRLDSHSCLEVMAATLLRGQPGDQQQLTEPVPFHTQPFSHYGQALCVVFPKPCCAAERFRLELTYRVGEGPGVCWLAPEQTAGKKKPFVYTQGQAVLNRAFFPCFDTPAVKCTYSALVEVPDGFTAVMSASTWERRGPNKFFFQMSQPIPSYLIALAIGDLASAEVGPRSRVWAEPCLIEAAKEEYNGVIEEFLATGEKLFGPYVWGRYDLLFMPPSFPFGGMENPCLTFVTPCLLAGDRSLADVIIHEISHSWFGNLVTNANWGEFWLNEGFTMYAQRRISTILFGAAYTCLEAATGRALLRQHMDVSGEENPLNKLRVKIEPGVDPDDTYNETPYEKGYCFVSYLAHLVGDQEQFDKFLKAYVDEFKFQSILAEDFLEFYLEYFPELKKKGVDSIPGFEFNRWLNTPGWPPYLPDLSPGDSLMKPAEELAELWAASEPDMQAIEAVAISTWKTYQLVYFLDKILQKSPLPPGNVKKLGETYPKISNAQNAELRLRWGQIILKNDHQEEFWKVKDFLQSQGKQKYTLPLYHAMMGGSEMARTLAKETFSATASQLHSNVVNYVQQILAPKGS
Kind of data set: aminopeptidase B-inhibiting activity (modified Hopsu method, arginine β-naphthylamide substrate). Type of data set: biochemical. Conditions: 37° C., pH 7.0, 30 minutes. As to the method:
The aminopeptidase B-inhibiting activity was determined according to a modification of the method of V. K. Hopsu et al. described in the "Archives of Biochemistry and Biophysics" Vol. 114, 557 (1966). Thus, a mixture of 0.8 ml of 0.1 mM of (S)-arginine β-naphthylamide and 1.0 ml of 0.1M Tris-hydrochloride buffer (pH 7.0) was admixed with 0.7 ml of 0.1M Tris-hydrochloride buffer (pH 7.0) containing the test compound and then heated at 37° C. for 3 minutes. […] After the reaction at 37° C. for 30 minutes, the reaction solution was admixed with 0.6 ml of 0.1M acetate buffer (pH 4.2) containing 1.0 mg/ml of diazonium salt of o-aminoazotoluene (Garnet GBC) and 1.0% of a surfactant "Tween" 20 (a registered trademark) to stop the enzymatic reaction and then allowed to stand at ambient temperature for 15 minutes. After this, absorbance (a) at 525 nm of the reaction solution was measured by spectrophotometer. For the control, the above procedure was repeated without the test compound and the adsorbence (b) was measured. Percentages for inhibition to aminopeptidase B were calculated according to the equation: [formula] Inhibition percentages at various concentrations of the test compound were measured, and from the values of inhibition percentages measured 50% Inhibition Concentration (IC50) was evaluated.

The test system of data set [2] is D.T.H. response in mice immunized with sheep red blood cell (SRBC). In words: Delayed Type Hypersensitivity (D.T.H.) footpad test in mice immunized with SRBC, Example 2. It is filed as in vivo, mouse. Conditions: CDF1 mice, control = 100. As to the method:
This Example describes the tests for evaluation of the immunopotentiating activity of the new compound of this invention.
A suspension of 10^8 sheep red blood cells in 0.05 ml of physiological saline was subcutaneously injected at the time of immunization into the right hind footpad of each CDF1 -mouse under test (female, 8 weeks-aged, 5 mice in each group) to establish D.T.H. Simultaneously to the immunization, […] prepared by dissolving the test compound in physiological saline and then filtering the solution by a micropore filter (pore diameter: 0.22 micrometers). Four days later, 10^8 SRBC were subcutaneously injected into the left […] footpad of each test mouse for elicitation of the D.T.H. response. 24 Hours after the elicitating injection, the increased thickness of the left hind footpad was measured with calipers to estimate the degree of swelling in the footpad. The swelling degree is expressed in term of the values calculated by the equation: [formula] The degree of swelling serves to evaluate the degree of cell-mediated immunity involved. For comparison, a suspension of bestatin dispersed in water was tested in the same way as above.

Where [3] appears, read: oral 0.05 mg/kg at immunization.
[4] abbreviates: Table 7, oral 1 mcg/mouse, control = 100.
Where [5] appears, read: Table 7, oral 10 mcg/mouse, control = 100.

Like-named read-outs stand apart in the source and are kept apart here. Some results are limits rather than exact numbers.

In the case of `CC(C)C[C@H](NC(=O)[C@@H](O)[C@H](N)Cc1ccccc1)C(=O)N[C@@H](CC(N)=O)C(=O)O`, in the data set on ICR-strain mice, the “acute toxicity: tolerance of intraperitoneal administration” value (“acute toxicity: tolerance” below) is reported as “tolerated”.
`N[C@@H](Cc1ccccc1)[C@@H](O)C(=O)O` [(2R,3S)-AHPA]: in data set [1] (Table 6, oral 1 mcg/mouse), the Degree of swelling is given as 133% and the “Increased in thickness of footpad (± S.D.)” value (from here on “Increased in thickness”) amounted to 11.7 ± 1.15 × 0.1 mm. Moreover, in data set [1] (Table 6, oral 10 mcg/mouse), the Degree of swelling stood at 120% and the “Increased in thickness” value stood at 10.6 ± 0.97 × 0.1 mm.
Take `CC(C)C[C@H](NC(=O)[C@@H](O)[C@H](N)Cc1ccccc1)C(=O)N[C@@H](CCCNC(=N)N)C(=O)O`: the “acute toxicity: tolerance” value in the data set with ICR-strain mice was “tolerated”.
Same read-out and setting: the entry for `CC(C)C[C@@H](CO)NC(=O)[C@H](CC(C)C)NC(=O)[C@@H](O)[C@H](N)Cc1ccccc1` is “tolerated”.
In the case of `Cl.N[C@H](Cc1ccccc1)[C@H](O)CO` [Compound No. 1, (2S,3R)-3-amino-2-hydroxy-4-phenyl-1-butanol-hydrochloride], on aminopeptidase B (read-out: IC50), the IC50 was over 230 µM. In addition, the Degree of swelling came out at 123% in data set [2] (setting [3]) and 129% in data set [2] (oral 0.5 mg/kg at immunization). Besides, the solubility in water entry in “solubility in water” is given as “soluble in water”.
For the compound `N[C@H](Cc1ccc(O)cc1)[C@H](O)C(=O)O` [(2S,3R)-p-OH-AHPA, (2S,3R)-3-amino-2-hydroxy-4-p-hydroxyphenylbutanoic acid], the “Increase in thickness of footpad (+ S.D.)” value turned out to be 9.7 ± 0.54 × 0.1 mm in data set [1] (Table 8, oral 1 mcg/mouse) and 11.0 ± 1.75 × 0.1 mm in data set [1] (Table 8, oral 10 mcg/mouse). Further, the Degree of swelling in data set [1] (Table 8, oral 1 mcg/mouse, control = 100) stood at 114%; in data set [1] (Table 8, oral 10 mcg/mouse, control = 100), 129%. Moreover, the “enhancement of D.T.H. response / cell-mediated immunity” value in data set [1] is given as “enhances likewise the cell-mediatedimmunity”. For the same compound, in “solubility in water”, the solubility in water result is “soluble in water”.
Turning to `NC(=O)[C@H](O)[C@H](N)Cc1ccccc1` [(2R,3R)-AHPA amide], in the data set “solubility in water”, the solubility in water entry was “soluble in water”.
On to `NC(=O)[C@@H](O)[C@H](N)Cc1ccccc1` [(2S,3R)-AHPA amide], for which the “Increase in thickness of footpad (± S.D.)” value in data set [1] (Table 7, oral 1 mcg/mouse) worked out at 9.8 ± 0.82 × 0.1 mm; in data set [1] (Table 7, oral 10 mcg/mouse), 11.5 ± 1.20 × 0.1 mm. The Degree of swelling came to 111% in data set [1] (setting [4]) and 131% in data set [1] (setting [5]).
Consider `N[C@@H](Cc1ccccc1)[C@H](O)C(=O)O` [(2S,3S)-AHPA], for which the Degree of swelling in data set [1] (Table 6, oral 1 mcg/mouse) stood at 111%. In data set [1] (Table 6, oral 10 mcg/mouse), the Degree of swelling came out at 135% and the “Increased in thickness” value is 11.9 ± 1.36 × 0.1 mm.
Regarding `COC(=O)[C@@H](O)[C@H](N)Cc1ccccc1.Cl` [(2S,3R)-AHPA methylester hydrochloride], the “Increase in thickness of footpad (± S.D.)” value in data set [1] (Table 7, oral 1 mcg/mouse) was 11.7 ± 1.29 × 0.1 mm; in data set [1] (Table 7, oral 10 mcg/mouse), 11.5 ± 1.12 × 0.1 mm. In addition, the results for the Degree of swelling in data set [1] (setting [4]) and in data set [1] (setting [5]) were 134% and 132%, respectively. Besides, the “enhancement of D.T.H. response / cell-mediated immunity” value in data set [1] was “active substantially as much as the free acid form of (2S,3R)-AHPA”.
Regarding `CC(C)C[C@H](NC(=O)C(O)[C@H](N)Cc1ccccc1)C(=O)N[C@H](Cc1ccccc1)[C@H](O)C(=O)O` (stereo partly drawn) [Compound No. 8, (3R)-N-[(2'S,3'R)-3'-amino-2'-hydroxy-4'-phenylbutanoyl-(S)-leucyl]amino-(2S)-2-hydroxy-4-phenylbutanoic acid], the IC50 on aminopeptidase B is 53 µg/mL.
As for `CC(C)C[C@H](NC(=O)[C@H](CC(C)C)NC(=O)[C@@H](O)[C@H](N)Cc1ccccc1)C(=O)O`, in the data set on ICR-strain mice, the “acute toxicity: tolerance” value is listed as “tolerated”.
Take `CC(C)C[C@@H](CO)NC(=O)[C@H](CC(C)C)NC(=O)C(O)[C@H](N)Cc1ccccc1` (stereo partly drawn) [Compound No. 4, (2S)-2-N-[(2'S,3'R)-3'-amino-2'-hydroxy-4'-phenylbutanoyl-(S)-leucyl]amino-4-methyl-pentanol]: the IC50 against aminopeptidase B worked out at 5.4 µg/mL. Also, in data set [2] (oral 0.5 mg/kg at immunization), the Degree of swelling came to 103%.
On to `CC(=O)N[C@H](Cc1ccccc1)[C@H](O)C(=O)N[C@H](CO)CC(C)C` [Compound No. 3, (2S)-2-N-[(2'S,3'R)-3'-N-acetylamino-2'-hydroxy-4'-phenylbutanoyl]amino-4-methyl-pentanol], for which the IC50 against aminopeptidase B was 48.9 µg/mL. The Degree of swelling in data set [2] (setting [3]) came out at 124%; in data set [2] (oral 0.5 mg/kg at immunization) it was 131%. Also, in “solubility in water”, the solubility in water result is “soluble in water”.
`CC(C)C[C@H](NC(=O)[C@@H](O)[C@H](N)Cc1ccccc1)C(=O)N[C@H](CC(C)C)C(=O)O` [Compound No. 7, (2S,3R)-3-amino-2-hydroxy-4-phenylbutanoyl-(S)-leucyl-(R)-leucine] registered a concentration for half-maximal inhibition (IC50) on aminopeptidase B of 15 µg/mL. Besides, in data set [2] (oral 0.5 mg/kg at immunization), the Degree of swelling is 120%.
Take `N[C@H](Cc1ccccc1)[C@@H](O)C(=O)O` [(2R,3R)-AHPA]: in data set [1] (Table 6, oral 1 mcg/mouse), the Degree of swelling is recorded as 135% and the “Increased in thickness” value worked out at 11.9 ± 0.74 × 0.1 mm. The “Increased in thickness” value in data set [1] (Table 6, oral 10 mcg/mouse) worked out at 9.6 ± 0.65 × 0.1 mm. Further, the solubility in water result in the data set “solubility in water” is “soluble in water”.
Consider `CC(C)C[C@@H](CO)NC(=O)[C@@H](O)[C@H](N)Cc1ccccc1` [Compound No. 2, (2S)-2-N-[(2'S,3'R)-3'-amino-2'-hydroxy-4'-phenylbutanoyl]amino-4-methyl-pentanol], for which the “acute toxicity: tolerance” value with ICR-strain mice is reported as “tolerated”. The IC50 at aminopeptidase B was found to be 0.65 µg/mL. Also, the Degree of swelling in data set [2] (setting [3]) is 106%; in data set [2] (oral 0.5 mg/kg at immunization), 126%.
